Experimental data published in ChEMBL document CHEMBL1201862, “PubChem BioAssay data set” (2004).
Calls of active or inactive are those of the source.

Legend:
[1] = biological target: Vascular endothelial growth factor receptor 1 (Homo sapiens, UniProt P17948); assay type: functional;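 further: measured within a kinome-wide profiling panel, FLT1 as the panel member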
Aurora kinase B = Aurora kinase B (Homo sapiens, UniProt Q96GD4); assay type: functional
[2] = biological target: Tyrosine-protein kinase receptor TYRO3 (Homo sapiens, UniProt Q06418); assay type: functional;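 further: TYRO3 value obtained as one member of a kinome-wide profiling panel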
[3] = biological target: Macrophage-stimulating protein receptor (Homo sapiens, UniProt Q04912); experiment: Navigating the Kinome. Panel member name: MST1R; assay type: functional
[4] = biological target: Tyrosine-protein kinase JAK3 (Homo sapiens, UniProt P52333); assay type: functional
Sequence of Tyrosine-protein kinase JAK3 (P52333 whole entry): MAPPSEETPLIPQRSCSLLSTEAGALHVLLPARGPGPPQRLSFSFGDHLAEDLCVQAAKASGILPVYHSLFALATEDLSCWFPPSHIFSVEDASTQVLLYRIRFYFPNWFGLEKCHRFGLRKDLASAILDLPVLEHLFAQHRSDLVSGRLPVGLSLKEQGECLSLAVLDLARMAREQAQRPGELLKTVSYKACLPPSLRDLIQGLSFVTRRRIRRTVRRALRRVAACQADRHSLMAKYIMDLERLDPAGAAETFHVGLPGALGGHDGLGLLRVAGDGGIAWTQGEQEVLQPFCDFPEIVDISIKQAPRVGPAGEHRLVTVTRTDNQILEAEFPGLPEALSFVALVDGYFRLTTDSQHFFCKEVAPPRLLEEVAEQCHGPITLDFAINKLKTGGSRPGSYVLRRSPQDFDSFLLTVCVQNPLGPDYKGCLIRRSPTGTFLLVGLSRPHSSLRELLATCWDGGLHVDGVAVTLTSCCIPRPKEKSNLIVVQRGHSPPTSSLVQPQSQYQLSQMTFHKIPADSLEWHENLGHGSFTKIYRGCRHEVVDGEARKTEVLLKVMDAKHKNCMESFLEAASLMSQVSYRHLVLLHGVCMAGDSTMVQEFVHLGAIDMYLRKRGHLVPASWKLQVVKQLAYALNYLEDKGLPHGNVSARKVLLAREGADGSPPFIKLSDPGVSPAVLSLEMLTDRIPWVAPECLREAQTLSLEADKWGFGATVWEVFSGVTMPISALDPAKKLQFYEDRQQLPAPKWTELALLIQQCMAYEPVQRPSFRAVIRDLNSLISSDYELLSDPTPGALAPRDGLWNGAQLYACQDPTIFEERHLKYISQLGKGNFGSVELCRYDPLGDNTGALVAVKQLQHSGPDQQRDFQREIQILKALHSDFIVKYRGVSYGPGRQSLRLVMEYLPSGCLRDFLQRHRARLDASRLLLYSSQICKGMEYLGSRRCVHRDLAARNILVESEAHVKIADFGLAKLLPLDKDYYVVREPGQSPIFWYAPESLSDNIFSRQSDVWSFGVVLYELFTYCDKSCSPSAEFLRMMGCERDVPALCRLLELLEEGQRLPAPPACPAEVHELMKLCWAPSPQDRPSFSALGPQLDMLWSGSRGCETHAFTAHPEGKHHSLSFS

[5] = biological target: Cyclin-dependent kinase 9 (Homo sapiens, UniProt P50750); assay type: functional;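 further: value from the CDK9 entry of a kinome-spanning kinase panel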
[6] = biological target: Macrophage colony-stimulating factor 1 receptor (Homo sapiens, UniProt P07333); assay type: functional;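 further: value comes from the Navigating the Kinome screening panel, CSF1R member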
Sequence of Macrophage colony-stimulating factor 1 receptor (P07333 whole entry): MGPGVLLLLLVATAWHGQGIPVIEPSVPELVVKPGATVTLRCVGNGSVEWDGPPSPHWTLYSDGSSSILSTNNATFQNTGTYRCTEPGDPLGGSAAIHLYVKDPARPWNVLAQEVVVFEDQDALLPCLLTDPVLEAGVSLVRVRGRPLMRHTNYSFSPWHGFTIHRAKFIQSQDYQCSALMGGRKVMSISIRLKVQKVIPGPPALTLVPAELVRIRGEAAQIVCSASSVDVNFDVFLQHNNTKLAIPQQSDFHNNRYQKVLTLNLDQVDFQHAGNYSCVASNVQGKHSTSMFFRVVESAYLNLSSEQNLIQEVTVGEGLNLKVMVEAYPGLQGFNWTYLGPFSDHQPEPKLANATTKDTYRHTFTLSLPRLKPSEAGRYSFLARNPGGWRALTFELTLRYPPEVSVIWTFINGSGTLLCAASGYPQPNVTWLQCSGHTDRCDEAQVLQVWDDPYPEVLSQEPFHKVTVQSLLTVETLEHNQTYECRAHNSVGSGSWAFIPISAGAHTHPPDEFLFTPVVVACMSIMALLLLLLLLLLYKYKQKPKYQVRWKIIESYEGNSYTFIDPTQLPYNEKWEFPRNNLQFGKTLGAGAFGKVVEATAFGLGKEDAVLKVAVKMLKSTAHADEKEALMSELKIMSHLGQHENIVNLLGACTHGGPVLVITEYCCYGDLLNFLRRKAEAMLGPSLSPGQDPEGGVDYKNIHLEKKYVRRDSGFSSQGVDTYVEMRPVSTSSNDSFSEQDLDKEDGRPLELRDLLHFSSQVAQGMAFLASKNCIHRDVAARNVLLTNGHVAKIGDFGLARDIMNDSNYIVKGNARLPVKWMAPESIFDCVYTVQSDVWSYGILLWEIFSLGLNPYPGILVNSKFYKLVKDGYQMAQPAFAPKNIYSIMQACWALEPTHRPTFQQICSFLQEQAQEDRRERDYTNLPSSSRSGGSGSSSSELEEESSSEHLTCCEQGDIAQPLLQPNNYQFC

[7] = biological target: Mitogen-activated protein kinase kinase kinase kinase 2 (Homo sapiens, UniProt Q12851); assay type: functional;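 further: measured as one member of a kinome-wide kinase panel, with MAP4K2 as the panel entry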
[8] = biological target: Platelet-derived growth factor receptor beta (Homo sapiens, UniProt P09619); assay type: functional;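 further: value comes from a kinome panel, with PDGFRB tested as one panel member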
[9] = biological target: Dual specificity tyrosine-phosphorylation-regulated kinase 1A (Homo sapiens, UniProt Q13627); assay type: functional;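 further: measured against DYRK1A as one member of a broad kinome profiling panel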
[10] = biological target: Serine/threonine-protein kinase pim-1 (Homo sapiens, UniProt P11309); assay type: functional
Sequence of Serine/threonine-protein kinase pim-1 (P11309 whole entry): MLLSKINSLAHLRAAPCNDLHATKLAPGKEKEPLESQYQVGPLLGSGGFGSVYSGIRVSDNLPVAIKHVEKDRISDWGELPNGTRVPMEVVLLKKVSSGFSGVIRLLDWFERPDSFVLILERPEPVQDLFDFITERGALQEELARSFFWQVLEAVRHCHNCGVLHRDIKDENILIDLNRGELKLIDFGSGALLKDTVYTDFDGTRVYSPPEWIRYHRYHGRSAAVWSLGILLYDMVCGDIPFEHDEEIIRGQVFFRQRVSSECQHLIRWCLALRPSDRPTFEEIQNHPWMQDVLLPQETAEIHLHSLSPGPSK

[11] = biological target: 5'-AMP-activated protein kinase catalytic subunit alpha-1 (Homo sapiens, UniProt Q13131); assay type: functional
Sequence of 5'-AMP-activated protein kinase catalytic subunit alpha-1 (Q13131 whole entry): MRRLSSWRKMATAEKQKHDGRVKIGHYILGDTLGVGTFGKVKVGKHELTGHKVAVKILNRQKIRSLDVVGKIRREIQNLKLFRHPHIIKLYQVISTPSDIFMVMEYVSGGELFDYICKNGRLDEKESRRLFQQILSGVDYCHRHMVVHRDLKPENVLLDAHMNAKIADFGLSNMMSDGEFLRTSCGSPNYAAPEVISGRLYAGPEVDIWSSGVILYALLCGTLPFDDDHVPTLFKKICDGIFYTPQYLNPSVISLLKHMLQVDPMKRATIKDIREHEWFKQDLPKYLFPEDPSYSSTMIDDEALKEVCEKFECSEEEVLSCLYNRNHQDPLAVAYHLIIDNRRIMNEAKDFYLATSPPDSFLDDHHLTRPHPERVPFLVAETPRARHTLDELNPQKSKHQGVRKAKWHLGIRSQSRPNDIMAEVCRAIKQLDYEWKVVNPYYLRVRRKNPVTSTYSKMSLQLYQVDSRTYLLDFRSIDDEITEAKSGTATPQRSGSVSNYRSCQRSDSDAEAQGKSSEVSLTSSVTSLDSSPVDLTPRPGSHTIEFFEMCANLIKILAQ

[12] = biological target: Glycogen synthase kinase-3 beta (Homo sapiens, UniProt P49841); assay type: functional;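 further: value comes from a broad kinome profiling panel, with GSK3B as the panel member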
Sequence of Glycogen synthase kinase-3 beta (P49841 whole entry): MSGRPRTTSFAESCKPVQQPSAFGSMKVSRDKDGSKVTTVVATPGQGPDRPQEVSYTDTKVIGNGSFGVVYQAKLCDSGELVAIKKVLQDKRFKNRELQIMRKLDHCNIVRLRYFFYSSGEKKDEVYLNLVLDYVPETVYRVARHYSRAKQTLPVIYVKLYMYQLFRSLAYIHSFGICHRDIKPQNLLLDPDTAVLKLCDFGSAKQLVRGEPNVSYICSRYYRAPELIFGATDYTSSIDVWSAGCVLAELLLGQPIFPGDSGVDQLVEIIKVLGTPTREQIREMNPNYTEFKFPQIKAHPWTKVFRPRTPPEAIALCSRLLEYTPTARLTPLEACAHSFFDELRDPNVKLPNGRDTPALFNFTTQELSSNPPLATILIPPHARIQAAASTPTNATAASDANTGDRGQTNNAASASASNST

[13] = biological target: Serine/threonine-protein kinase TAO1 (Homo sapiens, UniProt Q7L7X3); assay type: functional
[14] = biological target: Tyrosine-protein kinase BTK (Homo sapiens, UniProt Q06187); assay type: functional
[15] = biological target: BDNF/NT-3 growth factors receptor (Homo sapiens, UniProt Q16620); assay type: functional;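 further: NTRK2 measured as one member of a broad kinome-wide kinase profiling panel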
Sequence of BDNF/NT-3 growth factors receptor (Q16620 whole entry): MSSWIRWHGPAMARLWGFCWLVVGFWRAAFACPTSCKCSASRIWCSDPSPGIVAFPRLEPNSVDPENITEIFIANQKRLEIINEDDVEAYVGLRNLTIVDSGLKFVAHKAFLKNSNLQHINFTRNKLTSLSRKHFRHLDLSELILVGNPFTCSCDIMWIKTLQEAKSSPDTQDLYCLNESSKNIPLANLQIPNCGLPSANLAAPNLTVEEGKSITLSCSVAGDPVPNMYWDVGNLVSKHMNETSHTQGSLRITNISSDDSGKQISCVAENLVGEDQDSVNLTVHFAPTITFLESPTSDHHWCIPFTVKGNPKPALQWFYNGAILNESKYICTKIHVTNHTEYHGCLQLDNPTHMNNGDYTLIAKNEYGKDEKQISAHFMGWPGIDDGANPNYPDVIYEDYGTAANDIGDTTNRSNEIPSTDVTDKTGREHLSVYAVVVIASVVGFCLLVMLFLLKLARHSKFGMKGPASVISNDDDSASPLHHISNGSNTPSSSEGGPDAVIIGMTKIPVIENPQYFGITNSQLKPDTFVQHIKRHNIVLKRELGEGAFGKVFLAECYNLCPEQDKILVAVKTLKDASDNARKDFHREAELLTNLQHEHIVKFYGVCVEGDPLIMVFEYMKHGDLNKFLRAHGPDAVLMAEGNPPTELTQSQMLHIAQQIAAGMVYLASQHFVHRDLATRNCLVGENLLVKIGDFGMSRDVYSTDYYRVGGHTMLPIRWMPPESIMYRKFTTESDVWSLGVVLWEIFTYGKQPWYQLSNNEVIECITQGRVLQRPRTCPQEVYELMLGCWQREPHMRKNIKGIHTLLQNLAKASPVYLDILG

[16] = biological target: T1, Sentrin-specific protease 7 (Homo sapiens, UniProt Q9BQF6); assay type: functional;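 further: Luminescence-based dose-response confirmation of ultra-high-throughput screening hits, measuring inhibition of SENP7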
T1 sequence (Q9BQF6 whole entry): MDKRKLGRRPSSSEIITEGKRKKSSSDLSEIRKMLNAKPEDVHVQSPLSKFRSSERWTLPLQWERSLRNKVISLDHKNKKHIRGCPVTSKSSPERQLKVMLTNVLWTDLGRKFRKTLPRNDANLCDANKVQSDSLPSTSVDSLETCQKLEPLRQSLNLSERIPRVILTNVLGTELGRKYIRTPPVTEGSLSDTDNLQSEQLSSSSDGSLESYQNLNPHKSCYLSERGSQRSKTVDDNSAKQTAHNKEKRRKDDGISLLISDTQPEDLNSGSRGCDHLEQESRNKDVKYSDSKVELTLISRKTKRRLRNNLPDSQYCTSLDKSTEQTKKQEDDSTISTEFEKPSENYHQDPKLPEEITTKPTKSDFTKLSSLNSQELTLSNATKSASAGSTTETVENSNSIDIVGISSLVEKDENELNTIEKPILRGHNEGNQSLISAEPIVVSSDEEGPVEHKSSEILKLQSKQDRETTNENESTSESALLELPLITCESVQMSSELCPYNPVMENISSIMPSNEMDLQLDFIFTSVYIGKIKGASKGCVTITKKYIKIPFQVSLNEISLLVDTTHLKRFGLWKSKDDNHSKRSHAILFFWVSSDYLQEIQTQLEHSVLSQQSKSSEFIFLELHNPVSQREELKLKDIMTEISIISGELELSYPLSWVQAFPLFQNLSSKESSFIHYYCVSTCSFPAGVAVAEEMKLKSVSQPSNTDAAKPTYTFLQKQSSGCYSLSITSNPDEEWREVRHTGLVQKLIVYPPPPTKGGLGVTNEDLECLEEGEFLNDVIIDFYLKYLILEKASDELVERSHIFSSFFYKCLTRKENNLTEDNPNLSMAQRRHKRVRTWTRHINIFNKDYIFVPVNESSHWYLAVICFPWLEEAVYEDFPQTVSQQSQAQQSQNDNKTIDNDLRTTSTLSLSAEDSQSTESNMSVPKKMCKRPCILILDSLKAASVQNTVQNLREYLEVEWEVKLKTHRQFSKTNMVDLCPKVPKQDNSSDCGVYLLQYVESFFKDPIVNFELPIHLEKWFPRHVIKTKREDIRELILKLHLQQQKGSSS

[17] = biological target: Serine/threonine-protein phosphatase PP1-alpha catalytic subunit (Homo sapiens, UniProt P62136); experiment: inhibition of protein phosphatase 1 activity – biochemical, fluorescence, dose response (AID 2403);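 further: phosphatase turnover of OMFP into fluorescent 3-O-methylfluorescein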
Sequence of Serine/threonine-protein phosphatase PP1-alpha catalytic subunit (P62136 whole entry): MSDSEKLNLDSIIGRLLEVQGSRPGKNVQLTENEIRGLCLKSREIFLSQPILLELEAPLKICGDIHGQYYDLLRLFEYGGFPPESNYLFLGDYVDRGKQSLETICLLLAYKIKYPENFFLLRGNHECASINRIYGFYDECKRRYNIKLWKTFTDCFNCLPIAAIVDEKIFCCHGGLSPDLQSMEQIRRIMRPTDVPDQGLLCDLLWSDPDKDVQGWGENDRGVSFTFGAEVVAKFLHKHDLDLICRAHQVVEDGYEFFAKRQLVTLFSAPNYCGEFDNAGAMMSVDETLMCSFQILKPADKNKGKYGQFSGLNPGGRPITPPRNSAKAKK

[18] = biological target: T2, Heat shock factor protein 1 (Mus musculus, UniProt P38532); experiment: decrease of HSF1-responsive luciferase luminescence – cell-based, NIH3T3, dose retest, confirmation (AID 2382); assay type: functional;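 further: NIH3T3 fibroblasts with HSF1-driven luciferase reporter stressed by proteasome inhibitor MG132; luminescence from HSF1-driven luciferase expression after 8 hours of MG132 stress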
T2 sequence (P38532 whole entry): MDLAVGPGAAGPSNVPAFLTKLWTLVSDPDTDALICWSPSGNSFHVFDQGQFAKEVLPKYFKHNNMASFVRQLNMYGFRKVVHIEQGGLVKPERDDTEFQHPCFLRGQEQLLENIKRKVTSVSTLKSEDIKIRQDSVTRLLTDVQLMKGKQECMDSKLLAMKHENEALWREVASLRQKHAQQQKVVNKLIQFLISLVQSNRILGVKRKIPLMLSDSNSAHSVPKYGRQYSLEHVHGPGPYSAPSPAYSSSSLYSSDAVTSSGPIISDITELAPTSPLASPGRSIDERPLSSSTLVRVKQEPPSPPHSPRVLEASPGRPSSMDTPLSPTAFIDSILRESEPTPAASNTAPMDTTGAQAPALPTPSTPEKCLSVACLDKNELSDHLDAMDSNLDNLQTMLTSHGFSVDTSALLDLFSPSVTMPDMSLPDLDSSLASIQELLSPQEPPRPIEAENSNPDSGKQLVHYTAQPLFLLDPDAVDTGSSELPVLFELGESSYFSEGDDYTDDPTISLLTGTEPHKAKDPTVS

Albumin = Albumin (Bos taurus, UniProt P02769); experiment: Counterscreen for inhibitors of T-cell receptor (TCR)-CD3 interaction: Fluorescence-based biochemical high throughput dose response assay to identify inhibitors of T-cell receptor (TCR)-CD3 interaction using a TAMRA-labeled BSA probe.; assay type: functional

Sequence of Aurora kinase B (Q96GD4 whole entry): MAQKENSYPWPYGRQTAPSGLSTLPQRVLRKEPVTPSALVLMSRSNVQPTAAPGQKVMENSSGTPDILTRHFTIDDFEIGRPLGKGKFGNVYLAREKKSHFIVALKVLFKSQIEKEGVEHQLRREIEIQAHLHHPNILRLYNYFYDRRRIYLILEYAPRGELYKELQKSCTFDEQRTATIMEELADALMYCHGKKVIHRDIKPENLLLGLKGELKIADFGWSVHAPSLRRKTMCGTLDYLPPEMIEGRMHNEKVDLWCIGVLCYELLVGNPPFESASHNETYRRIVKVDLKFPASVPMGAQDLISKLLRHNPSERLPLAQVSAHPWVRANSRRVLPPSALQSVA

Cc1ccc(-c2cc3nc(Br)cnc3[nH]2)cc1
Ki [1]: > 3.98 µM (inactive) | Ki (Aurora kinase B): 0.794 µM (active) | Ki [2]: > 3.16 µM (inactive) | Ki [3]: > 3.98 µM (inactive) | Ki [4]: > 5.01 µM (inactive) | Ki [5]: > 1.58 µM (inactive) | Ki [6]: > 2.51 µM (inactive) | Ki [7]: > 2.51 µM (inactive) | Ki [8]: > 2 µM (inactive) | Ki [9]: > 2 µM (inactive) | Ki [10]: > 6.31 µM (inactive) | Ki [11]: 3.16 µM (active) | Ki [12]: > 3.98 µM (inactive) | Ki [13]: > 6.31 µM (inactive) | Ki [14]: > 6.31 µM (inactive) | Ki [15]: > 3.98 µM (inactive)

CC(=O)N(C1=C(Cl)C(=O)c2ccccc2C1=O)c1ccc(C(=O)O)cc1
IC50 [16]: 8.9 µM (active)

CC1(C)C=C2C(=NN(c3ccccc3)C(N)=C2C#N)CO1
IC50 [17]: 55.8 µM (not active) | EC50 [18]: > 195 µM (not active)

O=C1C=C(O)c2c(O)cc(O)c(O)c2C1=O
IC50 (Albumin): > 94.1 µM (inactive)
